Read-outs that look alike come from different tables or passages of the source.
Legend:
SARS-CoV-2-Nluc = test: microbe, parasite or virus in culture; format: cell-based
[1] = human exposures in the clinics, cited from earlier work; for Cmax: read-out: Exposure (μM): Cmax
plasma protein = conditions: data from literature; cited from earlier work
[2] = Severe acute respiratory syndrome coronavirus 2, 48 h

Compound	EC50 (SARS-CoV-2-Nluc; [2])	Plasma protein binding (%) (plasma protein)	CC50 (A549-hACE2 cells; human)	other results
Cc1cn2nc([C@@H]3CCCCN3C(=O)c3cc(Cl)ccc3NS(C)(=O)=O)cc2nc1N1CC[C@H](N)C1 [Presatovir]	2.53 µM			
CC[C@@H]1C[C@]1(NC(=O)[C@@H]1C[C@@H](Oc2cc(-c3csc(NC(C)C)n3)nc3c(Cl)c(OCCN4CCOCC4)ccc23)CN1C(=O)[C@@H](NC(=O)O[C@@H]1C[C@@H]2C[C@@H]2C1)C(C)(C)C)C(=O)O [GS-9451]				EC50 (SARS-CoV-2-Nluc; read-out: EC50): > 10 µM; CC50 (A549-hACE2 cells): > 50 µM
CC(C)(C)NC(=O)[C@@H]1C[C@@H]2CCCC[C@@H]2CN1C[C@@H](O)[C@H](Cc1ccccc1)NC(=O)[C@H](CC(N)=O)NC(=O)c1ccc2ccccc2n1 [Saquinavir]	8 to 9 µM	98%	35.1 ± 11.7 µM	Exposure (μM): Cmin [1]: 0.65 µM; Cmax [1]: 3.7 µM; EC50 (SARS-CoV-2-Nluc): 8.95 ± 0.31 µM; SI (selectivity index) (SARS-CoV-2-Nluc): 3.9
O=C1c2c(O)c(=O)ccn2N([C@@H]2c3ccccc3SCc3c2ccc(F)c3F)[C@@H]2COCCN12 [Baloxavir]	> 10 µM		47 ± 1.3 µM	
O=C1Nc2ccc(Cl)cc2[C@@](C#CC2CC2)(C(F)(F)F)O1 [Efavirenz]	> 9.6 µM	99.5-99.8%	37.6 ± 10.7 µM	Exposure (μM): Cmin [1]: 5.6 µM; Cmax [1]: 12.9 µM; SI (selectivity index) (SARS-CoV-2-Nluc): <3.9
COC(=O)N[C@H](C(=O)N[C@@H](Cc1ccccc1)[C@@H](O)CN(Cc1ccc(-c2ccccn2)cc1)NC(=O)[C@@H](NC(=O)OC)C(C)(C)C)C(C)(C)C [Atazanavir]	> 10 µM	86%	> 50 µM	activity against SARS-CoV-2-Nluc (in words) (SARS-CoV-2-Nluc): inactive
CC(C)OC(=O)[C@H](C)N[P@](=O)(CO[C@H](C)Cn1cnc2c(N)ncnc21)Oc1ccccc1 [Tenofovir alafenamide]	> 10 µM	80%	> 50 µM	Cmax [1]: 0.4 µM; activity against SARS-CoV-2-Nluc (in words) (SARS-CoV-2-Nluc): inactive
COC(=O)N[C@H](C(=O)N1CC2(CC2)C[C@H]1c1ncc(-c2ccc3c(c2)C(F)(F)c2cc(-c4ccc5nc([C@@H]6[C@H]7CC[C@H](C7)N6C(=O)[C@@H](NC(=O)OC)C(C)C)[nH]c5c4)ccc2-3)[nH]1)C(C)C [Ledapisvir]	> 10 µM		> 50 µM	activity against SARS-CoV-2-Nluc (in words) (SARS-CoV-2-Nluc): inactive
Fc1ccccc1-c1nc2ccn(Cc3ccc(-c4ccc(C(F)(F)F)cc4C(F)(F)F)nn3)cc-2n1 [Tegobuvir]	> 10 µM		17.9 ± 3.1 µM	
Cc1cc(/C=C/C#N)cc(C)c1Nc1ccnc(Nc2ccc(C#N)cc2)n1 [Rilpivirine]	7.8 ± 1.04 µM	99.7%	14.6 ± 1.6 µM	Exposure (μM): Cmin [1]: 0.30 µM; Cmax [1]: 0.83 µM
CC(C)CN(C[C@@H](O)[C@H](Cc1ccccc1)NC(=O)O[C@H]1CO[C@H]2OCC[C@H]21)S(=O)(=O)c1ccc(N)cc1 [Darunavir]	> 10 µM		> 50 µM	activity against SARS-CoV-2-Nluc (in words) (SARS-CoV-2-Nluc): inactive
C[C@@]1(O)[C@H](O)[C@@H](CO)O[C@H]1n1ccc2c(N)ncnc21 [MK-0608]				EC50 (SARS-CoV-2-Nluc; read-out: EC50): > 10 µM; CC50 (A549-hACE2 cells): > 50 µM
Nc1ccn(C[C@@H](CO)OCP(=O)(O)O)c(=O)n1 [Cidofovir]	> 10 µM		> 50 µM	
Cc1cccc(C)c1OCC(=O)N[C@@H](Cc1ccccc1)[C@@H](O)C[C@H](Cc1ccccc1)NC(=O)[C@H](C(C)C)N1CCCNC1=O [Lopinavir]	8 to 9 µM	98-99%	31.5 ± 2.5 µM	EC50 (SARS-CoV-2-Nluc): 9 ± 0.42 µM
NC(=O)c1nc(F)c[nH]c1=O [Favipiravir]	> 10 µM		> 50 µM	
O=C(Nc1ccc([N+](=O)[O-])cc1Cl)c1cc(Cl)ccc1O [Niclosamide]	0.715 µM		1.28 ± 0.23 µM	SI (selectivity index) (SARS-CoV-2-Nluc): 1.8
CC(C)c1nc(CN(C)C(=O)N[C@H](C(=O)N[C@@H](Cc2ccccc2)C[C@H](O)[C@H](Cc2ccccc2)NC(=O)OCc2cncs2)C(C)C)cs1 [Ritonavir]	> 10 µM			activity against SARS-CoV-2-Nluc (in words) (SARS-CoV-2-Nluc): inactive
CC(C)OC(=O)[C@H](C)N[P@](=O)(OC[C@H]1O[C@@H](n2ccc(=O)[nH]c2=O)[C@](C)(F)[C@@H]1O)Oc1ccccc1 [Sofosbuvir]	> 10 µM		> 50 µM	activity against SARS-CoV-2-Nluc (in words) (SARS-CoV-2-Nluc): inactive
C=C1[C@H](CO)[C@@H](O)C[C@@H]1n1cnc2c(=O)[nH]c(N)nc21 [Entecavir]	> 10 µM		> 50 µM	
O=C(NCc1c(F)cc(F)cc1F)c1cn2c(c(O)c1=O)C(=O)N1[C@H]3CC[C@H](C3)O[C@@H]1C2 [Bictegravir]	> 10 µM	>99%	> 50 µM	
C=CC(=O)N1CCC[C@@H](n2nc(-c3ccc(Oc4ccccc4)cc3)c3c(N)ncnc32)C1 [Ibrutinib]	> 10 µM		> 50 µM	

From US20230416692A1 (BOARD OF REGENTS, THE UNIVERSITY OF TEXAS SYSTEM, priority 2020, published 2023)
